Results on one molecule are retold here after US20260240878A1, “PTP1B/TC-PTP DUAL INHIBITORS AND PROTEIN DEGRADERS” (Purdue Research Foundation, priority 2023, published 2026).

*1 amine or outer side, *2 acyl side, *3 side chain or, on linkers, in order; H or OH if unused. Where a SMILES comes first, the peptide text is derived from it. [ ]: non-standard residue; d: D form. The star is where a group is joined. NHCH2(1,3-C6H4)CH2CO = O=C(Cc1cccc(CN[*:1])c1)[*:2]; F2Pmp = N[C@@H](Cc1ccc(C(F)(F)P(=O)(O)O)cc1)C(=O)O; Phenylacetyl(4-OH,3-OMe) = COc1cc(CC(=O)*)ccc1O; Benzoyl(3-Br,4-Me) = Cc1ccc(C(=O)*)cc1Br; X1 = Cc1ncsc1-c1ccc([C@H](C)N*)cc1; Hyp = O=C(O)[C@@H]1C[C@@H](O)CN1; Tle = CC(C)(C)[C@H](N)C(=O)O

Assay [1] has as its target T1, TC-PTP (Homo sapiens, UniProt P17706).
T1 sequence (P17706 1-415): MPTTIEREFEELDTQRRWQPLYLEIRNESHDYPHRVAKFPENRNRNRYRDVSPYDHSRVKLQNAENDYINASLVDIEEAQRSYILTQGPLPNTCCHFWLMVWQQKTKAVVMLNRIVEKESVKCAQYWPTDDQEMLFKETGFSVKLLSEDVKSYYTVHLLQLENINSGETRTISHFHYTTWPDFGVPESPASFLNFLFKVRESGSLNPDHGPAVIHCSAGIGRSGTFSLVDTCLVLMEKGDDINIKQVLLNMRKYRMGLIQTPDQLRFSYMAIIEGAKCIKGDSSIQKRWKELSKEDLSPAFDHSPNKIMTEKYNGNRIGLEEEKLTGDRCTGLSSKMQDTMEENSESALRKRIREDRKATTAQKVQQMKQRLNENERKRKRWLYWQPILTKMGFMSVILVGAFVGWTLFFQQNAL
As to the kind of experiment: Degradation assay in HEK293 cells (immunoblotting). It counts as cell-based. Details: Degradation assay was conducted in HEK293 cells with 1 μM degrader and 24 hours incubation; endogenous in cells; host or cells: HEK293. The following applies: 16 hours, dose response.

Assay [2] addresses T1, TC-PTP. The assay is described as follows: PTP activity assay with pNPP substrate (IC50, Ki, mode of inhibition). The assay is classed as biochemical. The following applies: pNPP 2 mM, pH 7.0, 25° C.; read-out: IC50, nM TC-PTP. An outline of the steps: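 Hydrolysis of pNPP measured spectrophotometrically in pH 7.0 DMG buffer (EDTA, NaCl, DTT, BSA) at 25 °C, 0.4 nM enzyme. IC50 at 2 mM pNPP (Km) over an inhibitor titration; mode of inhibition and Ki from rates across varied pNPP and inhibitor levels, fitted to enzyme kinetic models.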

For assay [3], the system named is PTP1B and TC-PTP. As to the kind of experiment: Western blot quantification of PTP1B/TC-PTP and pSTAT1 in multiple cell lines. The assay is classed as cell-based. As to the method: The GAPDH protein was used as the loading control. Compound 47 induces PTP1B and TC-PTP degradation in all tested cell lines with low nanomolar DC50s.
The GAPDH protein was used as the loading control. […] The changes in pSTAT1 level were positively correlated with TC-PTP/PTP1B degradation among all cell lines.
Tissues or cultured cells were lysed with ice-cold lysis buffer (50 mM Tris (pH 8.0, 150 mM NaCl, 10% Glycerol, 1% Triton-X-100) supplied with phosphatase inhibitor (Bimake) and protease inhibitor mixture (Roche Applied Science). Equal amounts of protein were resolved by SDS-PAGE, transferred to nitrocellulose membrane, and subjected to immunoblotting. Antibodies used in this study include anti-following proteins: pSTAT1^Tyr701 (Cell Signaling Technology #9167, 1:3000), GAPDH (Cell Signaling Technology #97166, 1:5000), pJAK1^Tyr1034/1035 (Cell Signaling Technology #74129, 1:1000), pJAK2^Tyr1007/1008 (Cell Signaling Technology #3776, 1:1000), TC-PTP (Abcam #ab180764, 1:3000). PTP1B (Abcam #ab244207, 1:1500).
(Immunoblotting shows a protein as a band on a membrane.)

In assay [4] the test system is PTP1B and TC-PTP. The assay is described as follows: Immunofluorescence of PTP1B and TC-PTP in U2OS cells. It counts as cell-based. The conditions noted are these: 1 μM, 3 hours and 24 hours. As to the method:
MG132 (20 μM) was used along with compound 47 to block PTP1B and TC-PTP degradation.

Assay [5] concerns PTP1B and TC-PTP. The assay is described as follows: PTP1B/TC-PTP degradation and pJAK1/2 elevation in MEF cells. The following applies: 500 nM, 16 hours. It counts as cell-based, mouse. On the procedure:
Deletion of TC-PTP or PTP1B abolished the compound 47-induced phosphorylation of the TC-PTP substrate JAK1 or the PTP1B substrate JAK2. Thus, compound 47 efficiently amplifies cellular […] signaling by degrading PTP1B and TC-PTP. U2OS cells were treated with DMSO or 0.2 μM compound 47 for 16 hours and stimulated with 20 ng/ml IFN-γ for 30 minutes. […] DAPI was used to stain the cell nucleus.
The target engagement by compound 47 inside the cell was ascertained. As negative regulators of IFN-γ signaling, PTP1B and TC-PTP dephosphorylate JAK2 at Y1007/Y1008 and JAK1 at Y1034/Y1035, respectively. In addition, TC-PTP can also directly dephosphorylate STAT family members, including STAT1 and STAT3, in the nucleus to comprehensively attenuate IFN signaling. […] In contrast, the addition of compound 47 to PTP1B^−/− MEF cells further increased the IFN-γ mediated TC-PTP substrate pJAK1/Y1034/Y1035 level with no alteration of PTP1B substrate JAK2/Y1007/Y1008 phosphorylation.

A further assay relates to pSTAT1. As to the kind of experiment: STAT1 phosphorylation in IFN-γ stimulated HEK293 cells (western blot). It counts as cell-based. The conditions noted are these: Homo sapiens, HEK293, 16 h, read-out: EC50 of pSTAT1 activation. On the procedure: Wild-type HEK293 cells were treated with compound 47 or ABBV-CLS-484 for 16 hours, and stimulated with 20 ng/ml IFN-γ to induce JAK-STAT signaling pathway activation.
Abbvie and Calico developed a potent PTP1B/TC-PTP inhibitor ABBV-CLS-484 (disclosed in International PCT application WO2019246513), and it is currently being evaluated as a treatment for locally advanced or metastatic tumors (NCT04777994).

Regarding `COc1cc(CC(=O)N[C@@H](Cc2ccccc2)C(=O)N[C@@H](Cc2ccc(C(F)(F)P(=O)(O)O)cc2)C(=O)N[C@@H](CCCCNC(=O)c2ccc(C)c(Br)c2)C(=O)NCc2cccc(CC(=O)N[C@H](C(=O)N3C[C@H](O)C[C@H]3C(=O)N[C@@H](C)c3ccc(-c4scnc4C)cc3)C(C)(C)C)c2)ccc1O` [Compound 47, ((4-((S)-3-(((S)-6-(3-bromo-4-methylbenzamido)-1-((3-(2-(((S)-1-((2S,4R)-4-hydroxy-2-(((S)-1-(4-(4-methylthiazol-5-yl)phenyl)ethyl)carbamoyl)pyrrolidin-1-yl)-3,3-dimethyl-1-oxobutan-2-yl)amino)-2-oxoethyl)benzyl)amino)-1-oxohexan-2-yl)amino)-2-((S)-2-(2-(4-hydroxy-3-methoxyphenyl)acetamido)-3-phenylpropanamido)-3-oxopropyl)phenyl)difluoromethyl)phosphonic Acid] ({Phenylacetyl(4-OH,3-OMe)}-F[F2Pmp]K(Benzoyl(3-Br,4-Me))[NHCH2(1,3-C6H4)CH2CO][Tle][Hyp]-X1), the TC-PTP degradation entry on TC-PTP [1] is “dose-dependently induced degradation of TC-PTP”. In addition, the IC50 at TC-PTP [2] is 30.1 ± 2.3 nM. The “DC50 of PTP1B and TC-PTP degradation” value in the assay with PTP1B and TC-PTP [3] (all tested cell lines, 16 hours) is listed as “low nanomolar”. Also, in the assay on PTP1B and TC-PTP [3] (multiple cell lines, 10 ng/ml IFN-γ 15 mins), the pSTAT1 level result is “enhances pSTAT1 level in all cell lines”. In addition, in the assay on PTP1B and TC-PTP [4], the “PTP1B and TC-PTP degradation by immunofluorescence” value was “degraded cytoplasm-localized PTP1B and both nucleus- and cytoplasm-localized TC-PTP”. In addition, in the assay with PTP1B and TC-PTP [5], the “IFN-γ stimulated JAK2 and JAK1 phosphorylation” value is recorded as “augmented”; the “PTP1B and TC-PTP removal” value is reported as “complete removal”. In addition, the EC50 in the assay on pSTAT1 was 9.1 nM.

A word on the IC50: it is the concentration needed to halve the response being measured. Broadly, the EC50 is the concentration that produces a half-maximal response.
